Measurements taken from ChEMBL document CHEMBL5375952, “Discovery of Novel 8-Hydroxyquinoline Derivatives with Potent In Vitro and In Vivo Antifungal Activity” (J Med Chem, 2023).

Tests used:
Candida albicans [1] = assay: Antifungal activity against Candida albicans SC5314 assessed as fungal growth inhibition incubated for 48 hrs by broth microdilution method; type: functional
Candida albicans [2] = assay: Antifungal activity against Candida albicans 22 assessed as fungal growth inhibition incubated for 48 hrs by broth microdilution method; type: functional
Nakaseomyces glabratus [3] = assay: Antifungal activity against Candida glabrata 202 assessed as fungal growth inhibition incubated for 48 hrs by broth microdilution method; type: functional
Nakaseomyces glabratus [4] = assay: Antifungal activity against Candida glabrata 205 assessed as fungal growth inhibition incubated for 48 hrs by broth microdilution method; type: functional
Pichia kudriavzevii [5] = assay: Antifungal activity against Candida krusei 68 assessed as fungal growth inhibition incubated for 48 hrs by broth microdilution method; type: functional
Pichia kudriavzevii [6] = assay: Antifungal activity against Candida krusei 69 assessed as fungal growth inhibition incubated for 48 hrs by broth microdilution method; type: functional
Pichia kudriavzevii [7] = assay: Antifungal activity against Candida krusei 477 assessed as fungal growth inhibition incubated for 48 hrs by broth microdilution method; type: functional
Candida parapsilosis [8] = assay: Antifungal activity against Candida parapsilosis 105 assessed as fungal growth inhibition incubated for 48 hrs by broth microdilution method; type: functional; conditions: Lodderomyces parapsilosis
Candida parapsilosis [9] = assay: Antifungal activity against Candida parapsilosis 107 assessed as fungal growth inhibition incubated for 48 hrs by broth microdilution method; type: functional; conditions: Lodderomyces parapsilosis
Candida parapsilosis [10] = assay: Antifungal activity against Candida parapsilosis 125 assessed as fungal growth inhibition incubated for 48 hrs by broth microdilution method; type: functional; conditions: Lodderomyces parapsilosis
Candida tropicalis [11] = assay: Antifungal activity against Candida tropicalis 176 assessed as fungal growth inhibition incubated for 48 hrs by broth microdilution method; type: functional
Candida tropicalis [12] = assay: Antifungal activity against Candida tropicalis 178 assessed as fungal growth inhibition incubated for 48 hrs by broth microdilution method; type: functional
Candida tropicalis [13] = assay: Antifungal activity against Candida tropicalis 184 assessed as fungal growth inhibition incubated for 48 hrs by broth microdilution method; type: functional
Cryptococcus neoformans [14] = assay: Antifungal activity against Cryptococcus neoformans 443 assessed as fungal growth inhibition incubated for 48 hrs by broth microdilution method; type: functional
Cryptococcus neoformans [15] = assay: Antifungal activity against Cryptococcus neoformans 444 assessed as fungal growth inhibition incubated for 48 hrs by broth microdilution method; type: functional
Cryptococcus neoformans [16] = assay: Antifungal activity against Cryptococcus neoformans 445 assessed as fungal growth inhibition incubated for 48 hrs by broth microdilution method; type: functional
Aspergillus fumigatus [17] = assay: Antifungal activity against Aspergillus fumigatus 023-12 assessed as fungal growth inhibition incubated for 48 hrs by broth microdilution method; type: functional
Aspergillus fumigatus [18] = assay: Antifungal activity against Aspergillus fumigatus A assessed as fungal growth inhibition incubated for 48 hrs by broth microdilution method; type: functional
Aspergillus fumigatus [19] = assay: Antifungal activity against Aspergillus fumigatus 7544 assessed as fungal growth inhibition incubated for 48 hrs by broth microdilution method; type: functional
Candida albicans [20] = assay: Antifungal activity against Candida albicans 25 assessed as fungal growth inhibition incubated for 48 hrs by broth microdilution method; type: functional
Candida albicans [21] = assay: Antifungal activity against Candida albicans 337 assessed as fungal growth inhibition incubated for 48 hrs by broth microdilution method; type: functional
Candida albicans [22] = assay: Antifungal activity against Candida albicans 338 assessed as fungal growth inhibition incubated for 48 hrs by broth microdilution method; type: functional
[Candida] auris [23] = Antifungal activity against Candida auris 276 assessed as fungal growth inhibition incubated for 48 hrs by broth microdilution method; type: functional; conditions: Candidozyma auris
[Candida] auris [24] = Antifungal activity against Candida auris 277 assessed as fungal growth inhibition incubated for 48 hrs by broth microdilution method; type: functional; conditions: Candidozyma auris
[Candida] auris [25] = Antifungal activity against Candida auris 278 assessed as fungal growth inhibition incubated for 48 hrs by broth microdilution method; type: functional; conditions: Candidozyma auris
[Candida] auris [26] = Antifungal activity against Candida auris 887 assessed as fungal growth inhibition incubated for 48 hrs by broth microdilution method; type: functional; conditions: Candidozyma auris
[Candida] auris [27] = Antifungal activity against Candida auris 888 assessed as fungal growth inhibition incubated for 48 hrs by broth microdilution method; type: functional; conditions: Candidozyma auris
Nakaseomyces glabratus [28] = assay: Antifungal activity against Candida glabrata 203 assessed as fungal growth inhibition incubated for 48 hrs by broth microdilution method; type: functional
Nakaseomyces glabratus [29] = assay: Antifungal activity against Candida glabrata 204 assessed as fungal growth inhibition incubated for 48 hrs by broth microdilution method; type: functional
Nakaseomyces glabratus [30] = assay: Antifungal activity against Candida glabrata 222 assessed as fungal growth inhibition incubated for 48 hrs by broth microdilution method; type: functional
Pichia kudriavzevii [31] = assay: Antifungal activity against Candida krusei 471 assessed as fungal growth inhibition incubated for 48 hrs by broth microdilution method; type: functional
Pichia kudriavzevii [32] = assay: Antifungal activity against Candida krusei 472 assessed as fungal growth inhibition incubated for 48 hrs by broth microdilution method; type: functional
Pichia kudriavzevii [33] = assay: Antifungal activity against Candida krusei 474 assessed as fungal growth inhibition incubated for 48 hrs by broth microdilution method; type: functional
Candida parapsilosis [34] = assay: Antifungal activity against Candida parapsilosis 104 assessed as fungal growth inhibition incubated for 48 hrs by broth microdilution method; type: functional; conditions: Lodderomyces parapsilosis
Candida parapsilosis [35] = assay: Antifungal activity against Candida parapsilosis ATCC22019 assessed as fungal growth inhibition incubated for 48 hrs by broth microdilution method; type: functional; conditions: Lodderomyces parapsilosis
Candida parapsilosis [36] = assay: Antifungal activity against Candida parapsilosis 106 assessed as fungal growth inhibition incubated for 48 hrs by broth microdilution method; type: functional; conditions: Lodderomyces parapsilosis
Candida tropicalis [37] = assay: Antifungal activity against Candida tropicalis 172 assessed as fungal growth inhibition incubated for 48 hrs by broth microdilution method; type: functional
Candida tropicalis [38] = assay: Antifungal activity against Candida tropicalis 177 assessed as fungal growth inhibition incubated for 48 hrs by broth microdilution method; type: functional
Candida tropicalis [39] = assay: Antifungal activity against Candida tropicalis 182 assessed as fungal growth inhibition incubated for 48 hrs by broth microdilution method; type: functional
Cryptococcus neoformans [40] = assay: Antifungal activity against Cryptococcus neoformans SH68 assessed as fungal growth inhibition incubated for 48 hrs by broth microdilution method; type: functional
Cryptococcus neoformans [41] = assay: Antifungal activity against Cryptococcus neoformans HN1 assessed as fungal growth inhibition incubated for 48 hrs by broth microdilution method; type: functional
Cryptococcus neoformans [42] = assay: Antifungal activity against Cryptococcus neoformans HN2 assessed as fungal growth inhibition incubated for 48 hrs by broth microdilution method; type: functional
Cryptococcus neoformans [43] = assay: Antifungal activity against Cryptococcus neoformans HN2-40 assessed as fungal growth inhibition incubated for 48 hrs by broth microdilution method; type: functional
Cryptococcus neoformans [44] = assay: Antifungal activity against Cryptococcus neoformans HN15 assessed as fungal growth inhibition incubated for 48 hrs by broth microdilution method; type: functional
Cryptococcus neoformans [45] = assay: Antifungal activity against Cryptococcus neoformans HN17 assessed as fungal growth inhibition incubated for 48 hrs by broth microdilution method; type: functional
Cryptococcus neoformans [46] = assay: Antifungal activity against Cryptococcus neoformans HN19 assessed as fungal growth inhibition incubated for 48 hrs by broth microdilution method; type: functional
Cryptococcus neoformans [47] = assay: Antifungal activity against Cryptococcus neoformans HN20 assessed as fungal growth inhibition incubated for 48 hrs by broth microdilution method; type: functional
Cryptococcus neoformans [48] = assay: Antifungal activity against Cryptococcus neoformans BJ3 assessed as fungal growth inhibition incubated for 48 hrs by broth microdilution method; type: functional
[49] = Antifungal activity against Cryptococcus gattii WM178 assessed as fungal growth inhibition incubated for 48 hrs by broth microdilution method; type: functional, Cryptococcus gattii VGI
[50] = Antifungal activity against Cryptococcus gattii WM179 assessed as fungal growth inhibition incubated for 48 hrs by broth microdilution method; type: functional, Cryptococcus gattii VGI
[51] = Antifungal activity against Cryptococcus gattii E566 assessed as fungal growth inhibition incubated for 48 hrs by broth microdilution method; type: functional, Cryptococcus gattii VGI
[52] = Antifungal activity against Cryptococcus gattii SCZ20024 assessed as fungal growth inhibition incubated for 48 hrs by broth microdilution method; type: functional, Cryptococcus gattii VGI
[53] = Antifungal activity against Cryptococcus gattii SCZ20031 assessed as fungal growth inhibition incubated for 48 hrs by broth microdilution method; type: functional, Cryptococcus gattii VGI

Measured: MIC

Oc1c(I)cc(Cl)c2cccnc12 [CLIOQUINOL]
0.031 µg/mL: [49] | [50] | [51] | [52] | [53]
0.032 µg/mL: Candida tropicalis [11]
0.5 µg/mL: Candida parapsilosis [9] | [Candida] auris [26] | Candida parapsilosis [35]
0.25 µg/mL: Nakaseomyces glabratus [4] | Pichia kudriavzevii [5] | Pichia kudriavzevii [7] | Candida parapsilosis [8] | Candida parapsilosis [10] | Aspergillus fumigatus [17] | Aspergillus fumigatus [18] | Aspergillus fumigatus [19] | [Candida] auris [27] | Nakaseomyces glabratus [30] | Pichia kudriavzevii [31] | Pichia kudriavzevii [33] | Candida parapsilosis [36]
0.063 µg/mL: Cryptococcus neoformans [16] | [Candida] auris [23] | [Candida] auris [24] | Cryptococcus neoformans [43] | Cryptococcus neoformans [46] | Cryptococcus neoformans [47] | Cryptococcus neoformans [48]
0.125 µg/mL: all other assays above
